Experiments:
Candida strains = test: Spot on lawn assay; assay type: cell-based; conditions: any of the Candida strains
Description: (§1) Antimicrobial activity of isolate MMA7 against the indicator strains was initially assessed with a deferred antagonism assay as described by Phelan et al. (2012). Subsequent testing of supernatants, crude extracts and purified compounds was carried out with a well and/or a spot on lawn assays. Essentially, 5 µl of samples were spotted onto 20 ml agar plates seeded with the indicator strain to a final OD600 of 0.015, or 30 µl aliquots were applied to a 5 mm well made on identical plates.
The activity of the purified peptide was tested together with its ASCE preparations, against the strains which were initially used as indicators on the colony overlay assay with the producing strain MMA7 (Table 4). […] No activity was detected against any of the Candida strains.

P. aeruginosa = test: Spot on lawn assay; assay type: cell-based, Pseudomonas aeruginosa PAO1; set-up: key: +, clear halo of growth inhibition; ++: multiple +, increased activity as assessed visually by the increased diameter of the inhibition zone; +++: multiple +, increased activity as assessed visually by the increased diameter of the inhibition zone; ++++: multiple +, increased activity as assessed visually by the increased diameter of the inhibition zone; +++++: multiple +, increased activity as assessed visually by the increased diameter of the inhibition zone; -, no inhibition; conditions: indicator P. aeruginosa; *activity only detected with 4 to 5 times more peptide than that used for the other indicators
Description: as §1

L. innocua = test: Spot on lawn assay; assay type: cell-based, Listeria innocua DPC 3567; set-up: key: +, clear halo of growth inhibition; ++: multiple +, increased activity as assessed visually by the increased diameter of the inhibition zone; +++: multiple +, increased activity as assessed visually by the increased diameter of the inhibition zone; ++++: multiple +, increased activity as assessed visually by the increased diameter of the inhibition zone; +++++: multiple +, increased activity as assessed visually by the increased diameter of the inhibition zone; -, no inhibition; conditions: indicator L. innocua
Description: as §1

C. sporogenes = test: Spot on lawn assay; assay type: cell-based, Clostridium sporogenes NCDO 1791; set-up: key: +, clear halo of growth inhibition; ++: multiple +, increased activity as assessed visually by the increased diameter of the inhibition zone; +++: multiple +, increased activity as assessed visually by the increased diameter of the inhibition zone; ++++: multiple +, increased activity as assessed visually by the increased diameter of the inhibition zone; +++++: multiple +, increased activity as assessed visually by the increased diameter of the inhibition zone; -, no inhibition; conditions: indicator C. sporogenes
Description: as §1

[1] = test system: L. monocytogenes and B. cereus; test: Storage stability, bioactivity by spot on lawn assay; assay type: physicochemical
From the text: Untreated samples were used as controls.

V. anguillarum = test: Spot on lawn assay; assay type: cell-based, Listonella (Vibrio) anguillarum LMG 4410; set-up: key to Antimicrobial activity, spot on lawn assay: +, clear halo of growth inhibition; ++: multiple +, increased activity as assessed visually by the increased diameter of the inhibition zone; +++: multiple +, increased activity as assessed visually by the increased diameter of the inhibition zone; ++++: multiple +, increased activity as assessed visually by the increased diameter of the inhibition zone; +++++: multiple +, increased activity as assessed visually by the increased diameter of the inhibition zone; -, no inhibition
Description: as §1

L. monocytogenes [2] = test: Mode of action: growth of the indicator in 96 well plates (optical density, cfu); assay type: cell-based, Listeria monocytogenes EGDe
Description: Initially 100 µl aliquots of a two-fold serial dilution of the MB 12h cultures CFS, ASCE and the purified peptide (approx. 150 µg ml^-1), were applied to individual wells on a 96 flat bottom multiple well plate (Sarstedt). An overnight culture of the indicator strain was diluted to an OD595 of 0.05 and 100 µl were applied to each of the wells containing the bioactive peptide. The plate was incubated at 37 °C, with agitation (200 rpm) and the optical density (595 nm) was monitored hourly. Wells where the indicator was added to water only were used as negative controls. Subsequently, 100 µl of indicator overnight cultures diluted to an OD595 of 0.05 were applied to individual wells on a 96 well plate and allowed to grow to an OD595 of 0.5-0.6. 100 µl of a two-fold serial dilutions of the CFS, the respective ASCE and purified peptide, or water, were then applied to the different wells and growth continued to be monitored hourly. At the different time points samples were taken and the number of cfu determined by plating dilutions onto appropriate agar plates.

C. lusitaniae = test: Spot on lawn assay; assay type: cell-based, Candida lusitaniae; set-up: key: +, clear halo of growth inhibition; ++: multiple +, increased activity as assessed visually by the increased diameter of the inhibition zone; +++: multiple +, increased activity as assessed visually by the increased diameter of the inhibition zone; ++++: multiple +, increased activity as assessed visually by the increased diameter of the inhibition zone; +++++: multiple +, increased activity as assessed visually by the increased diameter of the inhibition zone; -, no inhibition; conditions: indicator C. lusitaniae
Description: as §1

Alteromonas sp. = test: Spot on lawn assay; assay type: cell-based; set-up: key to Antimicrobial activity, spot on lawn assay: +, clear halo of growth inhibition; ++: multiple +, increased activity as assessed visually by the increased diameter of the inhibition zone; +++: multiple +, increased activity as assessed visually by the increased diameter of the inhibition zone; ++++: multiple +, increased activity as assessed visually by the increased diameter of the inhibition zone; +++++: multiple +, increased activity as assessed visually by the increased diameter of the inhibition zone; -, no inhibition
Description: as §1

L. monocytogenes [3] = test: Activity at different pH values, spot on lawn assay
C. dubliniensis = test: Spot on lawn assay; assay type: cell-based, Candida dubliniensis; set-up: key: +, clear halo of growth inhibition; ++: multiple +, increased activity as assessed visually by the increased diameter of the inhibition zone; +++: multiple +, increased activity as assessed visually by the increased diameter of the inhibition zone; ++++: multiple +, increased activity as assessed visually by the increased diameter of the inhibition zone; +++++: multiple +, increased activity as assessed visually by the increased diameter of the inhibition zone; -, no inhibition; conditions: indicator C. dubliniensis
Description: as §1

C=C1NC(=O)[C@@H]2CSC[C@@H](NC(=O)[C@@H]3CS[C@@H](C)[C@H]4NC(=O)[C@H](Cc5ccccc5)NC(=O)[C@H](NC(=O)[C@H](CCCNC(=N)N)NC(=O)[C@@H]5CSC[C@@H](NC(=O)[C@H](CCC(N)=O)NC(=O)[C@@H](NC(=O)[C@@H](NC(=O)/C(=C/C)NC(=O)[C@H](CCCCN)NC(=O)CNC(=O)[C@@H](NC(=O)/C(=C/C)NC(=O)[C@H](C)NC(=O)[C@H](Cc6c[nH]c7ccccc67)NC(=O)C(=O)CC)[C@@H](C)CC)[C@@H](C)CC)C(C)C)C(=O)N[C@@H](C(C)C)C(=O)N[C@@H](CCCCN)C(=O)N[C@@H](CCCCN)C(=O)N5)[C@H](C)SC[C@H](NC4=O)C(=O)NCC(=O)N3)C(=O)N[C@@H](CC(C)C)C(=O)NCC(=O)N[C@H](CSC[C@@H](C(=O)N[C@@H](CC(N)=O)C(=O)O)NC(=O)[C@H](CC(N)=O)NC1=O)C(=O)N2 [Subtilomycin]
Antimicrobial activity (Candida strains): No activity | Antimicrobial activity, spot on lawn assay (P. aeruginosa): +* | Antimicrobial activity, spot on lawn assay (L. innocua): ++ | Antimicrobial activity, spot on lawn assay (C. sporogenes): +++ | Activity after storage ([1]; after 5 months storage at -20 °C and -80 °C): No activity | Activity after storage ([1]; stored at 4 °C and room temperature, after two weeks): lost their activity | Period of storage with retained activity ([1]; stored at -20 °C and -80 °C, spot on lawn against L. monocytogenes and B. cereus): up to 4 months | Amount of peptide needed for detectable activity relative to that required to inhibit the Gram-positive indicators (V. anguillarum; V. anguillarum): four to five fold more peptide | Antimicrobial activity, spot on lawn assay (V. anguillarum; indicator V. anguillarum, *activity only detected with 4 to 5 times more peptide than that used for the other indicators): +* | Nature of the inhibitory activity (mode of action) (L. monocytogenes [2]; L. monocytogenes): bacteriolytic action | Effect on growth of the indicator (L. monocytogenes [2]; L. monocytogenes grown in presence of sample from the beginning of growth (T0), samples from 12 h MB cultures): completely abolish growth | Antimicrobial activity, spot on lawn assay (C. lusitaniae): - | Amount of peptide needed for detectable activity relative to that required to inhibit the Gram-positive indicators (Alteromonas sp.; Alteromonas sp.): four to five fold more peptide | Antimicrobial activity, spot on lawn assay (Alteromonas sp.; indicator Alteromonas sp., *activity only detected with 4 to 5 times more peptide than that used for the other indicators): +* | Activity at different pH (L. monocytogenes [3]; pH 9, 1 h at room temperature): reduction in activity | Activity at different pH (L. monocytogenes [3]; pH range 2 to 8, 1 h at room temperature): fully active | Activity at different pH (L. monocytogenes [3]; pH values higher than 9 (up to 11)): no activity | Antimicrobial activity, spot on lawn assay (C. dubliniensis): -

Source: EP2787003A1, “Antimicrobial peptide produced by marine sponge-derived Bacillus subtilis” (priority 2013, dated 2014)
